Test results as given in patent US20250221413A1, “Use and Preparation Method of Sulfoxamyl, and Oxidation System” (priority 2023, published 2025).
Values after ≈ are worked out from the molar mass of the structure shown. Values joined by “and” are separate entries in the source; they are usually repeats but may differ in a detail not shown here. Equal values may be shown once. Read-outs that look alike come from different tables or passages of the source.

Tested on: Meloidogyne incognita
Test: Indoor toxicity test against Meloidogyne incognita second-instar larvae (J2)
Conditions: 24 h
Procedure: Materials: the tested nematodes were collected from three different areas, namely cucumber crops in Dawenkou Town, Tai'an City, Shandong Province, and were all identified as southern root-knot nematodes (Meloidogyne incognita). The diseased roots were washed, cut into small sections of 0.5 cm to 1 cm, rinsed in 1% NaClO solution for about 30 s to 60 s, and rinsed with 200-mesh and 500-mesh sieves to collect nematode eggs for later use. The collected eggs were incubated at 25° C. using the Bayman funnel method and the second-instar larvae were collected 1 time per 24 h to ensure that the second-instar larvae selected each time were fresh and of consistent vitality.
The agent was 98% sulfoxamyl technical, and the comparison agents were 96% oxamyl technical and 87% fosthiazate technical.
The preparation for the agent was in accordance with the provisions for preparation of the liquid medicine in the Agricultural Industry Standard of the People's Republic of China NYT 1833.1-2009 “Guideline for laboratory bioassay of pesticides”, as shown in Table 6.
Methods: according to the experimental plan, the test agent was diluted to different mass concentrations, and 0.5 mL of the agent solution and 0.5 mL of the nematode solution (containing about 100 nematodes) were added into a 24-well cell culture plate. The treatment with each concentration of the agent was repeated 4 times, and auxiliary agent control and blank control were also conducted. […]

CCOP(=O)(SC(C)CC)N1CCSC1=O (stereo not shown) [Fosthiazate, fosthiazate]
Corrected mortality (3.125 mg/L): 17.51% and 18.63% and 12.52% | Death count (3.125 mg/L): 24 and 38 and 26 and 20 | Mortality (3.125 mg/L): 23.90% and 25.74% and 16.13% | Corrected mortality (6.25 mg/L): 33.03% and 29.63% and 42.23% | Death count (6.25 mg/L): 36 and 60 and 39 and 58 | Mortality (6.25 mg/L): 38.22% and 35.78% and 44.62% | Corrected mortality (12.5 mg/L): 57.70% and 46.22% and 41.17% and 62.23% | Death count (12.5 mg/L): 80 and 64 and 69 and 74 | Mortality (12.5 mg/L): 50.39% and 46.31% and 63.79% | Corrected mortality (25 mg/L): 74.92% and 67.46% and 64.47% | Death count (25 mg/L): 68 and 93 and 116 and 91 | Mortality (25 mg/L): 76.86% and 70.30% and 65.94% | Corrected mortality (50 mg/L): 79.38% and 77.71% and 74.49% | Death count (50 mg/L): 84 and 132 and 94 and 105 | Mortality (50 mg/L): 80.98% and 79.66% and 75.54% | Corrected mortality (100 mg/L): 75.25% and 86.39% and 79.87% | Death count (100 mg/L): 117 and 98 and 141 and 92 | Mortality (100 mg/L): 77.17% and 87.58% and 80.70% | LC90: 146.50 µg/mL (≈ 517 µM) | LC50 (Meloidogyne incognita): 14.6 µg/mL (≈ 51.4 µM) | mortality at 3.125 µg/mL (Meloidogyne incognita, 3.125 mg/L): 16.6% | mortality at 6.25 µg/mL (Meloidogyne incognita, 6.25 mg/L): 28.6% | mortality at 12.5 µg/mL (Meloidogyne incognita, 12.5 mg/L): 59.7% | mortality at 25 µg/mL (Meloidogyne incognita, 25 mg/L): 64.2% | mortality at 50 µg/mL (Meloidogyne incognita, 50 mg/L): 82.3% | mortality at 100 µg/mL (Meloidogyne incognita, 100 mg/L): 80.1% | mortality at 3.125 µg/mL (Meloidogyne incognita, read-out: Corrected mortality, 3.125 mg/L, 24 h): 12.4% | mortality at 6.25 µg/mL (Meloidogyne incognita, read-out: Corrected mortality, 6.25 mg/L, 24 h): 25% | mortality at 25 µg/mL (Meloidogyne incognita, read-out: Corrected mortality, 25 mg/L, 24 h): 62.4% | mortality at 50 µg/mL (Meloidogyne incognita, read-out: Corrected mortality, 50 mg/L, 24 h): 81.5% | mortality at 100 µg/mL (Meloidogyne incognita, read-out: Corrected mortality, 100 mg/L, 24 h): 79.2%
